In US9555039B2, “Piperidine derivatives and compositions for the inhibition of nicotinamide phosphoribosyltransferase (NAMPT)” (Forma TM, LLC., priority 2011, dated 2017):
Where two headings read alike, the source gives them in different places.

Tests used:
A2780 cells = test: In-vitro cell proliferation assay (SRB, 72 hours); type: cell-based; conditions: Homo sapiens, sulforhodamine B (SRB) assay
Outline: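 Background from media-only plate subtracted; inhibition relative to DMSO-treated cells, value derived by interpolation between two concentrations.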

[1] = molecular target: T1, Recombinant His-tagged NAMPT (Homo sapiens, UniProt P43490); test: Biochemical inhibition assay: NAMPT enzymatic reaction, NMN quantified by mass spectrometry; conditions: 33 nM NAMPT, 1 μM NAM, 100 μM PRPP, 30 minutes at room temperature, read-out: Biochem IC50
T1 construct: His; host or cells: E. coli
Outline: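 Reaction 30 min at room temperature with 1 μM NAM, 100 μM PRPP, 2.5 mM ATP (final), quenched with formic acid. NMN quantified by RapidFire electrospray MS, normalized to L-cystathionine; IC50 from percent inhibition versus DMSO.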

T1 sequence (P43490 whole entry): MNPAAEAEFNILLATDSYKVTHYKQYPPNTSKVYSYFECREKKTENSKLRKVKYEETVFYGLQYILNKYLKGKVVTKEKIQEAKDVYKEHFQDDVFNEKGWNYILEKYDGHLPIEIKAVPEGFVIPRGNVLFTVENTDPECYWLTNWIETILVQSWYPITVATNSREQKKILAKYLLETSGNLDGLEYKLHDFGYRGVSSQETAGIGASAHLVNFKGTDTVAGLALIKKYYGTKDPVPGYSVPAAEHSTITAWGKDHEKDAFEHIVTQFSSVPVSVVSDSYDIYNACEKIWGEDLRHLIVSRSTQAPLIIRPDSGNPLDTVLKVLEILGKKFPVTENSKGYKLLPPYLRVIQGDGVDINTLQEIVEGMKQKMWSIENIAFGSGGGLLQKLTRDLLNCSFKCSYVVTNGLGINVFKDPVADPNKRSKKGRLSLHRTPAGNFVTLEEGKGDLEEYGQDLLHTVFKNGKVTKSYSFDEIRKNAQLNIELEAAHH

| SMILES | IC50 (A2780 cells) | IC50 ([1]; 2.5 mM ATP) | IC50 ([1]; […] ATP) |
| --- | --- | --- | --- |
| O=C(NCCCCC1CCN(C(=O)c2cccc(Cl)c2)CC1)c1ccc2nccn2c1 [N-(4-{1-[(3-chlorophenyl)carbonyl]piperidin-4-yl}butyl)imidazo[1,2-a]pyridine-6-carboxamide] | 22.3 nM | 17.1 nM |  |
| O=C(NCCCCC1CCN(C(=O)c2cc(Cl)ccc2Cl)CC1)c1cc2ccncc2s1 [N-(4-{1-[(2,5-dichlorophenyl)carbonyl]piperidin-4-yl}butyl)thieno[2,3-c]pyridine-2-carboxamide] | 7.1 nM | 16 nM |  |
| O=C(NCCCCC1CCN(C(=O)c2ccc(C(F)(F)F)cc2)CC1)c1ccc2nccn2c1 [N-[4-(1-{[4-(trifluoromethyl)phenyl]carbonyl}piperidin-4-yl)butyl]imidazo[1,2-a]pyridine-6-carboxamide] | 100 to 1000 nM | 152 nM |  |
| O=C(NCCCCC1CCN(C(=O)c2ccc(OC(F)F)cc2)CC1)c1cc2ccncc2s1 [N-[4-(1-{[4-(difluoromethoxy)phenyl]carbonyl}piperidin-4-yl)butyl]thieno[2,3-c]pyridine-2-carboxamide] | 100 to 1000 nM | 77.4 nM |  |
| O=C(NCCCCC1CCN(C(=O)c2csc(C(F)(F)F)n2)CC1)c1ccc2nccn2c1 [N-[4-(1-{[2-(trifluoromethyl)-1,3-thiazol-4-yl]carbonyl}piperidin-4-yl)butyl]imidazo[1,2-a]pyridine-6-carboxamide] | 74 nM | 74.3 nM |  |
| Cc1cnc(C(=O)N2CCC(CCCCNC(=O)c3cc4cnccc4[nH]3)CC2)cn1 [N-(4-{1-[(5-methylpyrazin-2-yl)carbonyl]piperidin-4-yl}butyl)-1H-pyrrolo[3,2-c]pyridine-2-carboxamide] | 23.8 nM | 115 nM |  |
| COc1cccc(C(=O)N2CCC(CCCCNC(=O)c3cc4ccncc4s3)CC2)c1 [N-(4-{1-[(3-methoxyphenyl)carbonyl]piperidin-4-yl}butyl)thieno[2,3-c]pyridine-2-carboxamide] | 11 nM | 26.1 nM |  |
| O=C(NCCCCC1CCN(C(=O)c2ccccc2)CC1)c1cc2ccncc2s1 [N-[4-(1-benzoylpiperidin-4-yl)butyl]thieno[2,3-c]pyridine-2-carboxamide] | 1.2 nM |  | 6.3 nM |
| O=C(NCCCCC1CCN(C(=O)c2ccc3cc[nH]c3c2)CC1)c1cc2ccncc2s1 [N-(4-{1-[(1H-indol-6-yl)carbonyl]piperidin-4-yl}butyl)thieno[2,3-c]pyridine-2-carboxamide] | 70.3 nM | 36.1 nM |  |
| COc1cc(OC)cc(C(=O)N2CCC(CCCCNC(=O)c3cc4ccncc4s3)CC2)c1 [N-(4-{1-[(3,5-dimethoxyphenyl)carbonyl]piperidin-4-yl}butyl)thieno[2,3-c]pyridine-2-carboxamide] | 20.2 nM | 57.1 nM |  |
| Cc1ccc(F)cc1C(=O)N1CCC(CCCCNC(=O)c2cc3ccncc3s2)CC1 [N-(4-{1-[(5-fluoro-2-methylphenyl)carbonyl]piperidin-4-yl}butyl)thieno[2,3-c]pyridine-2-carboxamide] | 1.8 nM | 4.5 nM |  |
| Cc1nc(C)c(C(=O)N2CCC(CCCCNC(=O)c3ccc4nccn4c3)CC2)s1 [N-(4-{1-[(dimethyl-1,3-thiazol-5-yl)carbonyl]piperidin-4-yl}butyl)imidazo[1,2-a]pyridine-6-carboxamide] | 6.6 nM | 24.1 nM |  |
| O=C(NCCCCC1CCN(C(=O)c2cccc(F)c2)CC1)c1ccc2nccn2c1 [N-(4-{1-[(3-fluorophenyl)carbonyl]piperidin-4-yl}butyl)imidazo[1,2-a]pyridine-6-carboxamide] | 10.3 nM | 9.2 nM |  |
| CC(C)Oc1ccc(C(=O)N2CCC(CCCCNC(=O)c3cc4cnccc4[nH]3)CC2)cc1 [N-[4-(1-{[4-(propan-2-yloxy)phenyl]carbonyl}piperidin-4-yl)butyl]-1H-pyrrolo[3,2-c]pyridine-2-carboxamide] | 13.1 nM | 93.7 nM |  |
| COc1cccc(C(=O)N2CCC(CCCCNC(=O)c3cc4ccncc4s3)CC2)c1OC [N-(4-{1-[(2,3-dimethoxyphenyl)carbonyl]piperidin-4-yl}butyl)thieno[2,3-c]pyridine-2-carboxamide] | 5.6 nM | 16.9 nM |  |
| O=C(NCCCCC1CCN(S(=O)(=O)c2cc(F)ccc2F)CC1)c1cc2cnccc2[nH]1 [N-(4-{1-[(2,5-difluorobenzene)sulfonyl]piperidin-4-yl}butyl)-1H-pyrrolo[3,2-c]pyridine-2-carboxamide] | 5.8 nM | 11.1 nM |  |
| O=C(NCCCCC1CCN(C(=O)c2ccccc2F)CC1)c1ccc2nccn2c1 [N-(4-{1-[(2-fluorophenyl)carbonyl]piperidin-4-yl}butyl)imidazo[1,2-a]pyridine-6-carboxamide] | 0.5 nM | 3.8 nM |  |

| SMILES | IC50 (A2780 cells) | IC50 ([1]; 2.5 mM ATP) | IC50 ([1]; […] ATP) |
| --- | --- | --- | --- |
| COc1cc(OC)cc(C(=O)N2CCC(CCCCNC(=O)c3cc4cnccc4[nH]3)CC2)c1 [N-(4-{1-[(3,5-dimethoxyphenyl)carbonyl]piperidin-4-yl}butyl)-1H-pyrrolo[3,2-c]pyridine-2-carboxamide] | 2.6 nM | 74.1 nM |  |
| O=C(NCCCCC1CCN(C(=O)c2ccc3c(c2)OCO3)CC1)c1cc2cnccc2[nH]1 [N-(4-{1-[(2H-1,3-benzodioxol-5-yl)carbonyl]piperidin-4-yl}butyl)-1H-pyrrolo[3,2-c]pyridine-2-carboxamide] | 14 nM | 78.3 nM |  |
| O=C(NCCCCC1CCN(C(=O)c2c(F)cccc2F)CC1)c1cc2cnccc2[nH]1 [N-(4-{1-[(2,6-difluorophenyl)carbonyl]piperidin-4-yl}butyl)-1H-pyrrolo[3,2-c]pyridine-2-carboxamide] | 1.4 nM | 7.3 nM |  |
| O=C(NCCCCC1CCN(C(=O)c2ccc3cc[nH]c3c2)CC1)c1ccc2nccn2c1 [N-(4-{1-[(1H-indol-6-yl)carbonyl]piperidin-4-yl}butyl)imidazo[1,2-a]pyridine-6-carboxamide] | 14.9 nM | 29.8 nM |  |
| O=C(NCCCCC1CCN(C(=O)c2ccccc2)CC1)c1cc2cnccc2[nH]1 [N-[4-(1-benzoylpiperidin-4-yl)butyl]-1H-pyrrolo[3,2-c]pyridine-2-carboxamide] | 1.4 nM | 8.1 nM |  |
| COc1ccc(OC)c(C(=O)N2CCC(CCCCNC(=O)c3cc4cnccc4[nH]3)CC2)c1 [N-(4-{1-[(2,5-dimethoxyphenyl)carbonyl]piperidin-4-yl}butyl)-1H-pyrrolo[3,2-c]pyridine-2-carboxamide] | 2.2 nM | 15.5 nM |  |
| O=C(NCCCCC1CCN(C(=O)c2ccc(OC(F)(F)F)cc2)CC1)c1cc2cnccc2[nH]1 [N-[4-(1-{[4-(trifluoromethoxy)phenyl]carbonyl}piperidin-4-yl)butyl]-1H-pyrrolo[3,2-c]pyridine-2-carboxamide] | 12.7 nM | 145 nM |  |
| COc1cc(Cl)ccc1C(=O)N1CCC(CCCCNC(=O)c2cc3cnccc3[nH]2)CC1 [N-(4-{1-[(4-chloro-2-methoxyphenyl)carbonyl]piperidin-4-yl}butyl)-1H-pyrrolo[3,2-c]pyridine-2-carboxamide] | 6.1 nM | 62.1 nM |  |
| Cn1cc(CC(=O)N2CCC(CCCCNC(=O)c3cc4ccncc4s3)CC2)c2ccccc21 [N-(4-{1-[2-(1-methyl-1H-indol-3-yl)acetyl]piperidin-4-yl}butyl)thieno[2,3-c]pyridine-2-carboxamide] | 24 nM | 11.6 nM |  |
| O=C(NCCCCC1CCN(C(=O)c2ccc3ncsc3c2)CC1)c1ccc2nccn2c1 [N-(4-{1-[(1,3-benzothiazol-6-yl)carbonyl]piperidin-4-yl}butyl)imidazo[1,2-a]pyridine-6-carboxamide] | 39.3 nM | 23.7 nM |  |
| CC(C)S(=O)(=O)N1CCC(CCCCNC(=O)c2cc3cnccc3[nH]2)CC1 [N-{4-[1-(propane-2-sulfonyl)piperidin-4-yl]butyl}-1H-pyrrolo[3,2-c]pyridine-2-carboxamide] | 23 nM | 30.6 nM |  |
| COc1ncc(Cl)cc1C(=O)N1CCC(CCCCNC(=O)c2ccc3nccn3c2)CC1 [N-(4-{1-[(5-chloro-2-methoxypyridin-3-yl)carbonyl]piperidin-4-yl}butyl)imidazo[1,2-a]pyridine-6-carboxamide] | 3.3 nM | 12.3 nM |  |
| O=C(NCCCCC1CCN(C(=O)c2ccc3ncsc3c2)CC1)c1cc2cnccc2[nH]1 [N-(4-{1-[(1,3-benzothiazol-6-yl)carbonyl]piperidin-4-yl}butyl)-1H-pyrrolo[3,2-c]pyridine-2-carboxamide] | 12.6 nM | 72.7 nM |  |
| O=C(NCCCCC1CCN(S(=O)(=O)c2ccc(F)c(F)c2)CC1)c1cc2cnccc2[nH]1 [N-(4-{1-[(3,4-difluorobenzene)sulfonyl]piperidin-4-yl}butyl)-1H-pyrrolo[3,2-c]pyridine-2-carboxamide] | 22.8 nM | 34.6 nM |  |
| O=C(NCCCCC1CCN(C(=O)c2cnc(C(F)(F)F)nc2)CC1)c1cc2cnccc2[nH]1 [N-[4-(1-{[2-(trifluoromethyl)pyrimidin-5-yl]carbonyl}piperidin-4-yl)butyl]-1H-pyrrolo[3,2-c]pyridine-2-carboxamide] | 100 to 1000 nM | 242 nM |  |
| O=C(NCCCCN1CCN(C(=O)c2ccccc2)CC1)c1cc2cnccc2[nH]1 [N-[4-(4-benzoylpiperazin-1-yl)butyl]-1H-pyrrolo[3,2-c]pyridine-2-carboxamide] | 94.7 nM | 16 nM |  |
| O=C(NCCCCC1CCN(C(=O)c2ccc(F)cc2)CC1)c1ccc2nccn2c1 [N-(4-{1-[(4-fluorophenyl)carbonyl]piperidin-4-yl}butyl)imidazo[1,2-a]pyridine-6-carboxamide] | 26.2 nM | 12 nM |  |
